According to US20240208896A1, “PRODRUGS OF KV7 CHANNEL OPENERS” (Xyzagen, Inc., priority 2021, published 2024):
≈ marks a conversion by molar mass, not a printed value. Read-outs that look alike come from different tables or passages of the source.

Legend:
[1] = known value, cited from earlier work
[2] = biological target: Human Kv7.2/7.3 (Homo sapiens, UniProt O43525+O43526); assay: In vitro screen of Kv7.2/7.3 voltage gated potassium channels (FluxOR, FLIPR); assay type: cell-based
Protocol: Human Kv7.2/7.3 cells are harvested, counted and seeded in black, clear-bottomed 96 well plates at a density of 50,000 cells per well in 100 μl volume and incubated overnight. The following day, media was removed and 40 μl of loading buffer (4.895 mL HBSS:HEPES, 50 μL probenecid, 50 μL power load, 5 μl FluxOR reagent) was added and incubated at room temperature for 30 minutes. After incubation loading buffer was removed and 40 μl of assay buffer added (4.45 ml HBSS:HEPES, 500 μl FluxOR assay buffer and 50 μL probenecid) and incubated for 10 minutes.

[3] = Acid and organic solution stability, HPLC-UV 250 nm; settings: 5 mg/mL
Protocol: An HPLC-UV Vis method was developed using 0.1% Formic acid in water as mobile phase A and 0.1% Formic acid in acetonitrile as mobile Phase B. A gradient method was developed ramping from 10% A to 90% B over 8 minutes and then returning to 10% A at 8.5 minutes on a 4.6×50 mm Zorbax C-18 column. Injections of 10 uL of stability solutions were injected for analyte detection.
[…] Aliquots were collected at serial time points and then diluted to a nominal concentration of 100 ug/mL for injection to the HPLC and 250 nm monitored by the diode array detector. Data at approximately 10 days is presented.
Aliquots were collected at serial time points and then diluted to a nominal concentration of 100 ug/mL for injection to the HPLC and 250 nm monitored by the diode array detector.
(§1) It was also evaluated at 2 N HCl at 37° C. Aliquots were collected at serial time points and then diluted to a nominal concentration of 100 ug/mL for injection to the HPLC and 250 nm monitored by the diode array detector.
as §1, §1, §1

[4] = Pharmacokinetics of ezogabine prodrugs in mouse (SC, PO); settings: male mice, PO 20 mg/kg, analyte Cmpd 1
Protocol: (§2) Blood was diluted by 10% with these stabilizers.
(§3) Extraction of the molecules was conducted by taking a 50 uL aliquot of plasma and adding 200 uL of acetonitrile containing 200 ng/mL tolbutamide as the internal standard. Samples were precipitated in a 96 well plate, centrifuges and an aliquot transferred to a new plate, dried down under heat and nitrogen and then reconstituted in the initial mobile phase conditions of the LC-MS/MS method. […] A standard curve was prepared from 5000 ng/mL to 1 ng/mL for each analyte. Concentration data from the bioanalytical run was analyzed by Phoenix Winnonlin version 8 for noncompartmental sparse sampling PK analysis, plotting of concentration time curves and tabulation of PK parameters.
Animals were asphyxiated by carbon dioxide gas, blood was collected by cardiac stick and they were euthanized by cervical dislocation.

[5] = assay type: physicochemical; settings: for % Conversion to dimer / Concentration of dimer: 8 mg/mL in SGF, 38° C.
Excerpt: The structure of the dimer is presented.

[6] = Pharmacokinetics of ezogabine prodrugs in rat (IV, IM, PO)
Protocol: as §2
as §3, with “noncompartmental” for “noncompartmental sparse sampling”
150 uL of blood were collected at predesignated time points. At completion of the study animals were asphyxiated by carbon dioxide gas and exsanguinated for euthanasia.

[7] = in solvent, exposed to light; known; cited from earlier work
[8] = patients receiving ezogabine (POTIGA); Potiga label; cited from earlier work
[9] = system: MES induced seizures in Rat; assay: SD rat MES test after IM administration; assay type: in vivo; settings: SD rats, IM 75 mg/kg
Protocol: All treatments were at 0.083, 0.25, 0.5, 1, 2, 4, and 8 hours prior to the administration of MES test, where 6 seconds where 6 seconds without a seizure was considered protected.

[10] = 1000 ng/mL
Protocol: Plasma was collected by the biomaterial vendor and kept frozen at −20° C.
The samples were analyzed by HPLC separation and mass spectrometry detection for prodrug amount, relative to a baseline time 0 control sample. Triplicate samples were generated at each time point and the peak area response was averaged and converted to a percent of baseline control.

[11] = Rat PK at equimolar dose to Ezogabine (20 mg/kg) in 0.5% methylcellulose; settings: male cannulated rats; equimolar to Ezogabine 20 mg/kg; 0.5% methylcellulose; analyte the dosed prodrug
Protocol: (§4) Blood samples were collected at the same time points over 24 hours to generate a concentration time profile. Two male rats were dosed per group. Plasma samples were analyzed by LC/MS/MS and the resulting concentration time profiles and PK parameters are provided.
as §4, §4

[12] = system: formalin inflammatory model; assay: Formalin inflammatory pain model (hind paw flick/lick); assay type: in vivo; settings: male CD-1 mouse; 100 mg/kg SC 30 minutes before 5% formalin; both phases (0-10 and 15-40 min)
Protocol: Compound 4 was assessed in the […] formalin inflammatory model. The number of flicks/licks of a male CD-1 mouse in the acute phase 0-10 minute and the inflammatory phase from 15-40 min after intraplantar administration of 50 μL of 5% formalin was recorded. […] Data is presented over the duration of the observation periods in 2 minute bins.

[13] = Benchtop solvent stability exposed to light, HPLC-UV 230 nm, up to 7 days; assay type: physicochemical; settings: over 4 days
Protocol: Compounds in solvent were left on the benchtop exposed to light for up to 7 days since it is known that Compound 1 will degrade with light within 3-7 days.
Stability was assessed by taking an aliquot from the solubility vials at each test day. A single replicate was injected for each test condition.
Samples were injected onto an HPLC system with an aqueous mobile phase and acetonitrile organic phase and compounds were separated on a C8 50×2 mm column. Wavelength 230 nm was monitored for absorption and integrated for peak area while the mass spectrometer was used to confirm mass. Samples were tested on Day 1 and on subsequent days through Day 7.

[14] = Solvent solubility assessment by visual inspection; assay type: physicochemical
Protocol: Compounds were weighed and placed into a 4 dram vials and solvents were added to the target concentration. Compounds were vortex and visually inspected for particulates and considered soluble if clear upon visual inspection with and without magnification. Solubility was reported as either greater than (>) or less than (<) from the prepared concentration. […] It was evaluated at 10 mg/mL in 0.1 N NaCl and was freely soluble. It was evaluate at 1 mg/mL in 0.1 N NaOH and 0.1 N Na2HPO4 and was freely soluble. In ethanol and methanol it was freely soluble at a concentration of 75 mg/mL. […] It was freely soluble at 75 mg/mL in methanol and ethanol. It was soluble at 1 mg/mL in 1N HCl.

Human Kv7.2/7.3, sequence (O43526 whole entry): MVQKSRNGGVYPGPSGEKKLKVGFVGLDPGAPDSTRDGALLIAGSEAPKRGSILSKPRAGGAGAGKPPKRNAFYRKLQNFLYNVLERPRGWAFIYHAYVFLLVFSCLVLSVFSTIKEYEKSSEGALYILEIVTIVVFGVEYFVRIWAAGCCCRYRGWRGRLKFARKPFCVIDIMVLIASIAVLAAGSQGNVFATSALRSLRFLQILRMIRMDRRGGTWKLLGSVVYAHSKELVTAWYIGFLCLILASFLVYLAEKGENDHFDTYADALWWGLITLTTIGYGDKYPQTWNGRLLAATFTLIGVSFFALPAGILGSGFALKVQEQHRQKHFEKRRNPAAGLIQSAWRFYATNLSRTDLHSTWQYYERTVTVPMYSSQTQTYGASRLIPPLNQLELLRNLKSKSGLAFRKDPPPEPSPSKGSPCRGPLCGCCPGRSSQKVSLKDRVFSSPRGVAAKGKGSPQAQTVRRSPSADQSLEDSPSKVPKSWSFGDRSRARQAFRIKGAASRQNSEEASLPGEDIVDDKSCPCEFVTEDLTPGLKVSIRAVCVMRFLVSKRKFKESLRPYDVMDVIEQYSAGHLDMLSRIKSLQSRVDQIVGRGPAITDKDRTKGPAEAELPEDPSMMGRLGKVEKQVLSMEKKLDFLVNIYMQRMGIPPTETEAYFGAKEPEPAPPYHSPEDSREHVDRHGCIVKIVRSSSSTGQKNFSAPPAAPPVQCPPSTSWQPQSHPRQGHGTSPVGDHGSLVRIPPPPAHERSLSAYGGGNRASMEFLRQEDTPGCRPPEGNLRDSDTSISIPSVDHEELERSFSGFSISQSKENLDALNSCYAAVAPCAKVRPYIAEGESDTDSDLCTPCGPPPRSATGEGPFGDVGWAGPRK
Human Kv7.2/7.3, sequence (O43525 whole entry): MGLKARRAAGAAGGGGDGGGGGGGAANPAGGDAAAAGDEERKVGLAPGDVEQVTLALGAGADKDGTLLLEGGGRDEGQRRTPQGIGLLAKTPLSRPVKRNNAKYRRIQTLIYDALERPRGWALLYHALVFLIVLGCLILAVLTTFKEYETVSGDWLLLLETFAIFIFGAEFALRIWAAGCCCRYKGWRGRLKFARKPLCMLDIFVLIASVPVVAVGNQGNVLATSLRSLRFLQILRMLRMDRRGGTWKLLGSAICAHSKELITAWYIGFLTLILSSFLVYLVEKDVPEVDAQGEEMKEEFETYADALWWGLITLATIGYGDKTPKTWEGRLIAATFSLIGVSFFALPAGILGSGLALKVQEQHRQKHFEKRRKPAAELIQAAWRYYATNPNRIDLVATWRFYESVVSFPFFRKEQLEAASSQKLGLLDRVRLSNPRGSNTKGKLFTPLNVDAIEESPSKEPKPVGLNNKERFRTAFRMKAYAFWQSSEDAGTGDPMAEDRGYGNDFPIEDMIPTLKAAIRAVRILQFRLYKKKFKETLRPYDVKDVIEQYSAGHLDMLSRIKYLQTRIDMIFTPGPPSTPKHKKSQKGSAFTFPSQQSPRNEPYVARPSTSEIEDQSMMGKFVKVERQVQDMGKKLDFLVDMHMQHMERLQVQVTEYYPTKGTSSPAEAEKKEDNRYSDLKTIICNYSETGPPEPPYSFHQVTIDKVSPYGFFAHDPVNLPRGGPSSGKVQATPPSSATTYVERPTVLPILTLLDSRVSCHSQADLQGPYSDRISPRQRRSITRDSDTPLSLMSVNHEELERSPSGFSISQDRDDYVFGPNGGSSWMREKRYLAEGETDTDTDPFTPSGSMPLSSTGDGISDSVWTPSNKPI

CCOC(=O)Nc1ccc(NCc2ccc(F)cc2)cc1N [Compound 1, Ezogabine]
Solubility ([1]; 0.1N NaCl): 0.04 mg/mL (≈ 0.132 mM) | Solubility ([1]; 0.1N NaOH): 0.04 mg/mL (≈ 0.132 mM) | Solubility ([1]; Ethanol): 20 mg/mL (≈ 65.9 mM) | Solubility ([1]; Methanol): 54 mg/mL (≈ 178 mM) | Solubility ([1]; Water): 0.05 mg/mL (≈ 0.165 mM) | Solubility ([1]; listed as 0.1 Na2HPO4, determined in 0.1N K2HPO4): 0.18 mg/mL (≈ 0.593 mM) | EC50 [2]: 1.6 µM | % Remaining ([3]; 0.1N HCl, room temp., normal light, 267 h): 50.7% | % Remaining ([3]; 1N HCl, room temp., normal light, 267 h): 68.2% | % Remaining ([3]; Acetonitrile, room temp., normal light, 219 h): 44.9% | % Remaining ([3]; Methanol, room temp., normal light, 267 h): 41.3% | Colour of stability solution ([3]; acid solutions, room temperature): turning light purple (indicating degradation) by Day 2 | Colour of stability solution ([3]; organic solvents, room temperature): did not begin turning purple until Day 7 | Cmax/D [4]: 148 ng/mL/mg/kg | AUClast/D ([4]; 6 h): 190 ng·h/mL/mg/kg | % Conversion to dimer ([5]; Time 0): 0% | Concentration of dimer ([5]; Time 0): 0.00 ng/mL | % Conversion to dimer ([5]; Time 1 h): 0.250% | Concentration of dimer ([5]; Time 1 h): 19.5 ng/mL | % Conversion to dimer ([5]; Time 4 h): 7.95% | Concentration of dimer ([5]; Time 4 h): 623 ng/mL | % Conversion to dimer ([5]; Time 8 h): 25.2% | Concentration of dimer ([5]; Time 8 h): 1980 ng/mL | Stability at low pH ([5]; low pH (1 N HCl) and simulated gastric fluid): degrades and forms a chromophore dimer | Cmax/D ([6]; male SD rat, PO 20 mg/kg, analyte Cmpd 1): 44.8 ng/mL/mg/kg | AUClast/D ([6]; male SD rat, PO 20 mg/kg, analyte Cmpd 1, 24 h): 280 ng·h/mL/mg/kg | Time to degradation with light [7]: 3 to 7 days | Adverse reaction: abnormal coordination [8]: 7% | Adverse reaction: aphasia [8]: 4% | Adverse reaction: asthenia [8]: 5% | Adverse reaction: balance disorder [8]: 4% | Adverse reaction: blurred vision [8]: 5% | Adverse reaction: confusional state [8]: 9% | Adverse reaction: diplopia [8]: 7% | Adverse reaction: disturbance in attention [8]: 6% | Adverse reaction: dizziness [8]: 23% | Adverse reaction: dysarthria [8]: 4% | Adverse reaction: fatigue [8]: 15% | Adverse reaction: gait disturbance [8]: 4% | Adverse reaction: memory impairment [8]: 6% | Adverse reaction: somnolence [8]: 22% | Adverse reaction: tremor [8]: 8% | Adverse reaction: vertigo [8]: 8%

CCOC(=O)Nc1ccc(NCc2ccc(F)cc2)cc1NC(=O)[C@@H](N)CCCCN [Compound 4]
Protection from MES induced seizures ([9]; 2 through 8 hours post dose): fully protected | Protection from MES induced seizures ([9]; 1 h post dose): almost fully protected | Time by which prodrug is degraded in plasma ([10]; mouse): ≤ 6 h | Plasma stability ([10]; rat, 6 h): stable through 6 hours | Percent remaining in plasma ([10]; rat, plasma, 23 h): below 50% | Activity against the primary target of Kv7.2/7.3 ([2]; Human Kv7.2/7.3 cells, FluxOR fluorescence, 0.03 to 30 μM): inactive | Colour of stability solution [3]: remained clear and colorless through Day 18 | Ezogabine Area (formed from the prodrug) ([3]; 0.1N HCl, room temp., normal light, 269 h): 0 mAU | Ezogabine Area (formed from the prodrug) ([3]; 1N HCl, room temp., normal light, 269 h): 0 mAU | Ezogabine Area (formed from the prodrug) ([3]; 2N HCl 37C, 436 h): 167 mAU | Ezogabine Area (formed from the prodrug) ([3]; 2N HCl, room temp., normal light, 269 h): 38 mAU | Ezogabine Area (formed from the prodrug) ([3]; Methanol, room temp., normal light, 437 h): 0 mAU | Ezogabine Area (formed from the prodrug) ([3]; PBS, room temp., normal light, 435 h): 0 mAU | Degradation / conversion to ezogabine in solution ([3]; acidic solutions and organic solvents, up to 3 weeks): very little degradation to ezogabine | % Remaining ([3]; 437 h): 98.5% | % Remaining ([3]; buffer, 435 h): 99.2% | % Remaining ([3]; buffer, 436 h): 94.9% | AUClast/D [11]: 6.26 ng·h/mL/mg/kg | Cmax/D [11]: 2.34 ng/mL/mg/kg | Exposure of the prodrug itself in systemic circulation ([6]; rat, in vivo, po): slightly more detectable | Reduction in behavioral response (flicks/licks) compared to vehicle [12]: 50% | Reduction in peak area ([13]; 0.1N NaOH): > 50% | Stability in solvent ([13]; all test conditions except 0.1 N NaOH): appears stable | Solubility ([14]; 0.1N HCl): >20 mg/mL | Solubility ([14]; 0.1 N Na2HPO4, aqueous buffer, thermodynamic from solid, read-out: Solubility (freely soluble at tested concentration)): > 1 mg/mL | Solubility ([14]; 0.1N NaCl): >10 mg/mL | Solubility ([14]; 0.1 N NaCl, saline or isotonic, thermodynamic from solid, read-out: Solubility (freely soluble at tested concentration)): > 10 mg/mL | Solubility ([14]; 0.1N NaOH): >1 mg/mL | Solubility ([14]; 0.1 N NaOH, aqueous buffer, thermodynamic from solid, read-out: Solubility (freely soluble at tested concentration)): > 1 mg/mL | Solubility ([14]; 0.1 Na2HPO4): >1 mg/mL | Solubility ([14]; Ethanol): >75 mg/mL | Solubility ([14]; Methanol): >75 mg/mL | Solubility ([14]; Water): >20 mg/mL | Solubility ([14]; ethanol, organic solvent or mixture, thermodynamic from solid, read-out: Solubility (freely soluble at tested concentration)): > 75 mg/mL | Solubility ([14]; methanol, organic solvent or mixture, thermodynamic from solid, read-out: Solubility (freely soluble at tested concentration)): > 75 mg/mL | Solubility ([14]; saline or isotonic, 0.9% w/v NaCl, for in vivo studies, read-out: Solubility (formulated as freely soluble solution)): ≥ 150 mg/mL | Solubility ([14]; simulated gastric fluid, thermodynamic from solid, 0.1N HCl, read-out: Solubility (freely soluble at tested concentration)): > 20 mg/mL | Solubility ([14]; water, thermodynamic from solid, read-out: Solubility (freely soluble at tested concentration)): > 20 mg/mL
